Data reported in article PMC13403234, “Engineering Cathepsin S Selective Chemical Probes and Antibody−Drug Conjugates through Substrate Profiling with Unnatural Amino Acids” (Journal of Medicinal Chemistry, 2026).
*1 amine or outer side, *2 acyl side, *3 side chain or, on linkers, in order; H or OH if unused. Where a SMILES comes first, the peptide text is derived from it. [ ]: non-standard residue; d: D form. The star is where a group is joined. Dolaproine = CO[C@@H]([C@@H]1CCCN1)[C@@H](C)C(=O)O; Phe(F5) = N[C@@H](Cc1c(F)c(F)c(F)c(F)c1F)C(=O)O; Dil = CC[C@H](C)[C@H](NC)[C@@H](CC(=O)O)OC; PABC = O=C(OCc1ccc(N[*:1])cc1)[*:2]; X1 = C[C@@H](N*)[C@@H](O)c1ccccc1; Cit = NC(=O)NCCC[C@H](N)C(=O)O; NMeV = CN[C@H](C(=O)O)C(C)C; ClZ = O=C(OCc1ccccc1Cl)*

Assays:
[1] = target: T1, Cathepsin S (Homo sapiens, UniProt P25774); experiment: Prodrug cleavage / MMAE release by LC-MS, cathepsin S; assay type: biochemical; conditions: prodrug 50 μM, pH 5.5, 37 °C, 0-120 min
T1 construct: made in house
T1 sequence (P25774 115-331): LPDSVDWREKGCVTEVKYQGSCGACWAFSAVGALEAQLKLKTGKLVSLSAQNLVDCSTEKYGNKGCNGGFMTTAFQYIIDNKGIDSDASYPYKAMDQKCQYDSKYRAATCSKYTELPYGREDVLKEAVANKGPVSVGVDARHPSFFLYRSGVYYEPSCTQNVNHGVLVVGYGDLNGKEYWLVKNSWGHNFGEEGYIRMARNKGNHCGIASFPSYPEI
Description: Cleavage assays were conducted at 37 °C in 1 mL reaction volumes using acetate buffer composed of 100 mM sodium acetate (pH 5.5), 100 mM NaCl, 1 mM EDTA, and 5 mM DTT. Buffers were prepared at room temperature and equilibrated before use. Prodrugs were initially dissolved in DMSO at a stock concentration of 10 mM, then diluted into the reaction buffer to a final concentration of 50 μM, maintaining a DMSO concentration below 0.5% (v/v). Reactions were initiated by the addition of recombinant cathepsin and carried out in glass LC-MS vials incubated at 37 °C. At specified time points (0, 5, 30, 60, and 120 min), aliquots were taken and directly injected into the LC-MS system without further processing. Quantification of MMAE release was based on absorbance at 220 nm. The area under the MMAE peak was integrated, and the amount of released MMAE was plotted as a function of time. Each time point was measured in triplicate, and results are presented as mean ± standard deviation (SD). A standard curve was prepared using free MMAE at concentrations of 1, 5, 10, 20, and 50 μM to enable accurate quantification of MMAE released from the prodrugs.

[2] = target: T2, Cathepsin L (Homo sapiens, UniProt P07711); experiment: Second-order rate constants of inhibition (kobs/[I]), cathepsin L; assay type: biochemical; conditions: for kobs/[I] Cath L: Figure 4D, Cy5- and BODIPY-labeled probes
T2 construct: made in house
T2 sequence (P07711 114-333): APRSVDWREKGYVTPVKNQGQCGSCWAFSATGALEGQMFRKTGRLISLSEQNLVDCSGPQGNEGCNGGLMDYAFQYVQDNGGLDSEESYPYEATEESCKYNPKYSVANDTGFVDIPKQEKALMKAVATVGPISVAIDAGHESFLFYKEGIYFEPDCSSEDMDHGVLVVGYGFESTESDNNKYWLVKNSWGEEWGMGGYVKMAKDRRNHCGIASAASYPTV
Description: (§1) All kinetic studies were performed using an fMax fluorescence plate reader (Molecular Devices) in kinetic mode with 96- or 384-well plates. ACC fluorescence was monitored at excitation and emission wavelengths of 355 and 460 nm, respectively. Recombinant human cysteine cathepsins L, V, B, K, and S were expressed and purified as previously described. Prior to use, all cysteine cathepsins were titrated with E64 to normalize enzymatic activity. Assays for cathepsins were conducted in 100 mM sodium acetate buffer containing 10 mM NaCl and 10 mM DTT (pH 5.5). Breast cancer cell lysates (BT-474, MCF-7, MDA-MB-231) were prepared by culturing cells to confluence in the appropriate media, replacing media with PBS, and harvesting the cells using a cell scraper (without trypsin). The cells were pelleted by centrifugation (400 × g, 5 min), resuspended in PBS, and centrifuged again under the same conditions. After removal of the supernatant, the pellet was resuspended in cathepsin assay buffer (excluding DTT) and sonicated. Lysates were then clarified by centrifugation (12,000 × g, 5 min), and the supernatants were collected and stored at −80 °C until use. All enzymatic assays, including HyCoSuL library screening and kinetic analyses of synthetic substrates, inhibitors, probes and prodrugs, were conducted at 37 °C and repeated at least three times. Mean values are reported. Kinetic data were analyzed using GraphPad Prism software (version 10.4.1).
(§2) The second-order rate constants of inhibition (k obs/[I]) were determined for human recombinant cathepsins S, B, L, and V using their respective assay buffers. All measurements were performed under pseudo-first-order kinetic conditions, as previously described. Inhibitors or ABPs were serially diluted in assay buffer and transferred to a 96-well plate. Each well was supplemented with the fluorogenic substrate Cbz-Phe-Arg-AMC at a final concentration of 25 μM and preincubated for 15 min. In parallel, enzymes were preactivated in assay buffer for 15 min at room temperature. Following preincubation, the activated enzymes were added to the wells, and fluorescence was monitored immediately for 30 min. The k obs/[I] values (M^-1S^-1) were calculated from the progress curves and averaged from at least three independent experiments. Final inhibitor (or ABP) concentrations were maintained at a minimum of 5-fold excess relative to enzyme concentrations to ensure pseudo-first-order conditions. Results were analyzed in GraphPad Prism and are reported as mean ± standard deviation.

[3] = target: T3, Cathepsin B (Homo sapiens, UniProt P07858); experiment: Second-order rate constants of inhibition (kobs/[I]), cathepsin B; assay type: biochemical; set-up: made in house; conditions: for kobs/[I] Cath B: Figure 4D, Cy5- and BODIPY-labeled probes
Description: as §1, §2

[4] = target: T1, Cathepsin S; experiment: Second-order rate constants of inhibition (kobs/[I]), cathepsin S; assay type: biochemical; conditions: for kobs/[I] Cath S / Selectivity S to B / Selectivity S to V: Figure 4D; for kobs/[I] Cath S: Cy5- and BODIPY-labeled probes; for Selectivity S to B / Selectivity S to V: calculated from kobs/[I]; for Selectivity S to B: cathepsin S over cathepsin B; for Selectivity S to V: cathepsin S over cathepsin V
Description: as §1, §2

[5] = target: T4, active cathepsin S in MDA-MB-231 live cells (Homo sapiens, UniProt P25774); experiment: Labeling of active cathepsin S in MDA-MB-231 live cells with Cy5 probes; assay type: cell-based; conditions: inhibitor 25 μM for 2 h, then OG-233 or OG-234 for 24 h
T4 construct: endogenous in cells; host or cells: MDA-MB-231
T4 sequence (P25774 115-331): as the sequence (P25774 115-331) above
Description: 50,000 of MDA-MB-231 cells were seeded into 12-well plate and allowed to attach overnight. The next day, OG-233 and OG-234 probes (1 μM final concentration) were added to the cells and incubated for various times (from 0,5 h up to 24 h). Control cells were preincubated with cathepsin S inhibitors (JN1, JN4, JN7) at 25 μM for 2 h, and then incubated with OG-233 or OG-234 probes for 24 h. Next, cells were harvested and prepared for SDS-PAGE analysis as described in the above section. Electrophoresis was run for 25 min (4−12% Bis-Tris Plus 10-well gel, 200 V). Next, proteins were transferred onto the membrane (0.2 μm nitrocellulose membrane, 10 V, 60 min) and Ponceau S was used to verify equal loading and transfer. Membranes were then blocked with 5% BSA in TBS-T buffer for 1 h at RT. Membranes were next incubated anticathepsin S antibody (1:1,000, overnight, 4 °C), and the next day with a secondary antibody (IRDye 800CW, donkey anti-Goat) for 30 min at RT, and scanned at 680 and 800 nm using the Sapphire biomolecular imager (Azure Biosystems) to detect the Cy5 probes and cathepsin S. All images were analyzed with Image Studio software.

[6] = target: T3, Cathepsin B; experiment: Fluorogenic ACC substrate hydrolysis kinetics, cathepsin B; assay type: biochemical; set-up: made in house; kcat Cathepsin B: unit not given here; conditions: third-generation substrates, steady-state; for Km: Table S5; for kcat Cathepsin B: Table S6
Description: as §1
(§3) Peptide substrates for cathepsin S were designed based on P4-P1 specificity profiling and synthesized on Rink amide resin using standard Fmoc solid-phase peptide synthesis protocols. The resin was swollen in dichloromethane (DCM) and deprotected with 20% piperidine in DMF. Fmoc-ACC-OH was coupled twice using HOBt/DIC in DMF and allowed to react overnight. Subsequent Fmoc-protected amino acids were coupled sequentially using HATU and 2,4,6-collidine, with Fmoc deprotection after each step using 20% piperidine in DMF. Following chain assembly, the N-terminus was acetylated using AcOH/HBTU/DIPEA in DMF for 45 min. Peptides were cleaved from the resin using TFA/TIPS/H2O (95:2.5:2.5, v/v/v) for 2 h, precipitated in cold diethyl ether, lyophilized, and purified by preparative HPLC. […] Final compounds were dissolved in DMSO at 20 mM and stored at −80 °C. To evaluate substrate selectivity, each fluorogenic peptide (10 μM) was incubated with recombinant cysteine cathepsins (5 nM) in assay buffer at 37 °C. Fluorescence emission was recorded at 460 nm, and initial cleavage rates were reported as relative fluorescence units per second (RFU/s). For selected substrates, detailed kinetic parameters (k cat, KM, and k cat/KM) were determined as previously described.

[7] = target: T1, Cathepsin S; experiment: Fluorogenic ACC substrate hydrolysis kinetics, cathepsin S; assay type: biochemical; set-up: kcat Cathepsin S: unit not given here; conditions: third-generation substrates, steady-state; for Km: Table S5; for kcat Cathepsin S: Table S6
Description: as §1, §3

[8] = target: T2, Cathepsin L; experiment: Fluorogenic ACC substrate hydrolysis kinetics, cathepsin L; assay type: biochemical; set-up: kcat Cathepsin L: unit not given here; conditions: third-generation substrates, steady-state; for Km: Table S5; for kcat Cathepsin L: Table S6
Description: as §1, §3

[9] = target: T5, Cathepsin V (Homo sapiens, UniProt O60911); experiment: Fluorogenic ACC substrate hydrolysis kinetics, cathepsin V; assay type: biochemical; set-up: kcat Cathepsin V: unit not given here; conditions: third-generation substrates, steady-state; for Km: Table S5; for kcat Cathepsin V: Table S6
T5 construct: made in house
T5 sequence (O60911 114-334): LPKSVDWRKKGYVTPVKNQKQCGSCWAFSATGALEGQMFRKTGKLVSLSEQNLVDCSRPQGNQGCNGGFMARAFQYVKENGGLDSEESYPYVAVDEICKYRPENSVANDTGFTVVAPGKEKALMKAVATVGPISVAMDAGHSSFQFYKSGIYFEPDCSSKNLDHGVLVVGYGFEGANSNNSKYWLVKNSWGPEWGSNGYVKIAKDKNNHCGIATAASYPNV
Description: as §1, §3

[10] = target: T5, Cathepsin V; experiment: Second-order rate constants of inhibition (kobs/[I]), cathepsin V; assay type: biochemical; conditions: Figure 4D; Cy5- and BODIPY-labeled probes
Description: as §1, §2

CC[C@H](C)[C@@H]([C@@H](CC(=O)N1CCC[C@H]1[C@H](OC)[C@@H](C)C(=O)N[C@H](C)[C@@H](O)c1ccccc1)OC)N(C)C(=O)[C@@H](NC(=O)[C@H](C(C)C)N(C)C(=O)OCc1ccc(NC(=O)[C@@H](CCC(=O)OC)NC(=O)[C@H](CCCCNC(=O)OCc2ccccc2Cl)NC(=O)[C@H](CCCNC(N)=O)NC(=O)[C@H](Cc2c(F)c(F)c(F)c(F)c2F)NC(C)=O)cc1)C(C)C [313D, Ac-Phe(F5)-Cit-Lys(2ClZ)-DGlu(Me)-PABC-MMAE] (Ac-[Phe(F5)][Cit]K(ClZ)[dE](OMe)[PABC][NMeV]V[Dil][Dolaproine]-X1; N-terminus and C-terminus assumed)
cleavage / free MMAE release by cathepsin S [1]: remained stable

CC(C)C[C@H](NC(=O)[C@H]1O[C@@H]1C(=O)O)C(=O)NCCCCN=C(N)N [E-64, reference compound]
kinact/KI ([2]; pH 5.5, read-out: kobs/[I] Cathepsin L): 65100 M⁻¹ s⁻¹
kinact/KI ([3]; pH 5.5, read-out: kobs/[I] Cathepsin B): 81200 M⁻¹ s⁻¹
kinact/KI ([4]; pH 5.5, Table S8, AOMK inhibitors, pseudo-first-order conditions): 132000 M⁻¹ s⁻¹

CC[C@H](C)[C@@H]([C@@H](CC(=O)N1CCC[C@H]1[C@H](OC)[C@@H](C)C(=O)N[C@H](C)[C@@H](O)c1ccccc1)OC)N(C)C(=O)[C@@H](NC(=O)[C@H](C(C)C)N(C)C(=O)OCc1ccc(NC(=O)[C@H](CCC(=O)OC)NC(=O)[C@H](CCCCNC(=O)OCc2ccccc2Cl)NC(=O)[C@H](CCCNC(N)=O)NC(=O)[C@H](Cc2c(F)c(F)c(F)c(F)c2F)NC(C)=O)cc1)C(C)C [compound 313, Ac-Phe(F5)-Cit-Lys(2ClZ)-Glu(Me)-PABC-MMAE] (Ac-[Phe(F5)][Cit]K(ClZ)E(OMe)[PABC][NMeV]V[Dil][Dolaproine]-X1; N-terminus and C-terminus assumed)
cleavage / free MMAE release by cathepsin S [1]: selectively and efficiently hydrolyzed only by cathepsin S

Ac-Met(O2)-Cit-NptGly-Glu(Me)-AOMK [JN-1]
effect of inhibitor pretreatment on probe binding [5]: did not influence probe binding

Ac-Phe(F5)-Cit-Lys(2ClZ)-Glu(Me)-AOMK [JN-7]
effect of inhibitor pretreatment on probe binding [5]: did not influence probe binding

Ac-Phe(F5)-Thz-2Aoc-Gln-ACC [OG-200]
Km [6]: 20.3 µM
kcat Cathepsin B [6]: 0,30
Km [7]: 1.63 µM
kcat Cathepsin S [7]: 0,15
Km [8]: 15.9 µM
kcat Cathepsin L [8]: 0,02
Km [9]: 4.31 µM
kcat Cathepsin V [9]: 0,20

Ac-Phe(F5)-Thz-2Aoc-Glu(Me)-ACC [OG-201]
Km [6]: 15.8 µM
kcat Cathepsin B [6]: 0,46
Km [7]: 3.04 µM
kcat Cathepsin S [7]: 0,65
Km [8]: 12.1 µM
kcat Cathepsin L [8]: 0,03
Km [9]: 11.2 µM
kcat Cathepsin V [9]: 0,29

BODIPY-PEG(4)-Met(O2)-Cit-NptGly-Glu(Me)-AOMK [OG-236]
kobs/[I] Cath V [10]: 2,170 M^-1s^-1
kobs/[I] Cath L [2]: < 500 M⁻¹ s⁻¹
kobs/[I] Cath B [3]: 3,800 M^-1s^-1
kobs/[I] Cath S [4]: 78,300 M^-1s^-1
Selectivity S to B [4]: 21
Selectivity S to V [4]: 36

BODIPY-PEG(4)-Phe(F5)-Cit-Lys(2ClZ)-Glu(Me)-AOMK [OG-235]
kobs/[I] Cath V [10]: 1,640 M^-1s^-1
kobs/[I] Cath L [2]: < 500 M⁻¹ s⁻¹
kobs/[I] Cath B [3]: 7,700 M^-1s^-1
kobs/[I] Cath S [4]: 1,140,000 M^-1s^-1
Selectivity S to B [4]: 148
Selectivity S to V [4]: 695
higher potency than the unlabeled parent inhibitor ([4]; cathepsin S kobs/[I], probe vs parent inhibitor): over 2 fold
selectivity for cathepsin S over cathepsin L ([4]; kobs/[I] based): > 2000 fold
selectivity for cathepsin S over cathepsin V ([4]; kobs/[I] based): > 500 fold
